Reference: patent US8367838B2, “Amines or amino alcohols as GLYT1 inhibitors” (Hoffmann-La Roche Inc., priority 2009, dated 2013)
Structures can show the parent of a compound that is named as a salt.

Target: T1, mGlyT-1b (Mus musculus, UniProt P28571)
T1 construct: host or cells: Flp-in-CHO
T1 sequence (P28571 1-651 isoform P28571-2): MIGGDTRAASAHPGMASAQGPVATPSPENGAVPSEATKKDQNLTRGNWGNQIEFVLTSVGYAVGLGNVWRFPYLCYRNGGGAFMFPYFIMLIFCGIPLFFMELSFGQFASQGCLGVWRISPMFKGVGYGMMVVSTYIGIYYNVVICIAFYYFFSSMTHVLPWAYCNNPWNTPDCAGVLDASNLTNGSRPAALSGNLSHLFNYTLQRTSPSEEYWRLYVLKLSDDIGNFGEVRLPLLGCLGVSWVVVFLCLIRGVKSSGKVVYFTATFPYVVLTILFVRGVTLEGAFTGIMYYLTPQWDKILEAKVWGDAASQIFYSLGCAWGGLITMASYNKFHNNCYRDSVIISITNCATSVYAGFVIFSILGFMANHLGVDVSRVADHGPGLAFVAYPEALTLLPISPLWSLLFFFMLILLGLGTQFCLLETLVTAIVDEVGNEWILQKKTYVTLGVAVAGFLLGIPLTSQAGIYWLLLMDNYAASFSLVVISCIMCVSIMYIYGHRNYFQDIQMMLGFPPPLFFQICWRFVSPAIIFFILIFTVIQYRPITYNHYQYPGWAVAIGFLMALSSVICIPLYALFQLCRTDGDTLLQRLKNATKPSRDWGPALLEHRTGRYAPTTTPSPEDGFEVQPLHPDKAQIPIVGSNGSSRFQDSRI
Test: Glycine uptake inhibition assay (mGlyT-1b), [3H]-glycine uptake in transfected Flp-in-CHO cells
Format: cell-based
Settings: Flp-in-CHO cells transfected with mGlyT-1b cDNA; [3H]-glycine 60 nM and 25 μM non-radioactive glycine; 20 min preincubation at 22° C.; read-out: IC50 (μM) at GlyT-1; Ic50 (hglyt1b)
Procedure, shortened: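 Flp-in CHO cells stably expressing mouse GlyT-1b were preincubated 20 min at 22 °C with inhibitor in pH 7.4 Hepes-Tris buffer. Uptake was then run with 60 nM [3H]-glycine plus 25 μM unlabeled glycine, with 10 mM glycine defining nonspecific uptake. Cell radioactivity was counted by scintillation to derive IC50.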

Structure (SMILES): N[C@@H](c1ccc(Cl)c(Cl)c1)[C@H](O)c1ccc(-c2cccnc2)cc1 (racemic) [Example 81, rac-erythro-2-Amino-2-(3,4-dichloro-phenyl)-1-(4-pyridin-3-yl-phenyl)-ethanol]
- IC50: 0.031 µM

Structure (SMILES): CS(=O)(=O)c1cccc(-c2ccc([C@@H](O)[C@@H](N)c3ccc(Cl)c(Cl)c3)c(F)c2)c1 (single isomer, unassigned) [Example 6, (1R,2S or 1S,2R)-2-Amino-2-(3,4-dichloro-phenyl)-1-(3-fluoro-3′-methanesulfonyl-biphenyl-4-yl)-ethanol hydrochloride]
- IC50: 0.012 µM

Structure (SMILES): N[C@@H](c1ccc(Cl)cc1)[C@H](O)c1ccc(-c2cccc(C(F)(F)F)c2)cc1 (racemic) [Example 79, rac-erythro-2-Amino-2-(4-chloro-phenyl)-1-(3′-trifluoromethyl-biphenyl-4-yl)-ethanol]
- IC50: 0.93 µM

Structure (SMILES): N[C@@H](c1ccc(Cl)c(Cl)c1)[C@H](O)c1ccc(OC2CCOCC2)cn1 (racemic) [Example 25, rac-erythro-[2-Amino-2-(3,4-dichloro-phenyl)-1-[5-(tetrahydro-pyran-4-yloxy)-pyridin-2-yl]-ethanoldihydrochloride]
- IC50: 0.216 µM

Structure (SMILES): N[C@@H](c1ccc(Cl)c(Cl)c1)[C@H](O)c1ccc(OC2CCOCC2)cc1 (racemic) [Example 40, rac-erythro-[2-Amino-2-(3,4-dichloro-phenyl)-1-[4-(tetrahydro-pyran-4-yloxy)-phenyl]-ethanol]
- IC50: 0.052 µM

Structure (SMILES): Cc1ccc([C@H](N)[C@H](O)c2ccc(OC3CCOCC3)cc2)cc1F (racemic) [Example 57, rac-erythro-2-Amino-2-(3-fluoro-4-methyl-phenyl)-1-[4-(tetrahydro-pyran-4-yloxy)-phenyl]-ethanol]
- IC50: 0.202 µM

Structure (SMILES): N[C@@H](c1ccc(Cl)cc1)[C@H](O)c1ccc(OC2CCOCC2)cc1 (racemic) [Example 59, rac-erythro-2-Amino-2-(4-chloro-phenyl)-1-[4-(tetrahydro-pyran-4-yloxy)-phenyl]-ethanol]
- IC50: 0.054 µM

Structure (SMILES): N[C@@H](c1ccc(C(F)(F)F)c(F)c1)[C@H](O)c1ccc(-c2cncc(F)c2)cc1 (racemic) [Example 96, rac-erythro-2-Amino-1-[4-(5-fluoro-pyridin-3-yl)-phenyl]-2-(3-fluoro-4-trifluoromethyl-phenyl)-ethanol]
- IC50: 0.733 µM

Structure (SMILES): C[Si](C)(C)c1ccc([C@@H](O)[C@@H](N)c2ccc(Cl)c(Cl)c2)cc1 (racemic) [Example 35, rac-erythro-[2-Amino-2-(3,4-dichloro-phenyl)-1-(4-trimethylsilanyl-phenyl)-ethanol trifluoroacetate]
- IC50: 0.298 µM

Structure (SMILES): N[C@@H](c1ccc(Cl)cc1)[C@H](O)c1ccc(-c2ccccc2Cl)cc1 (racemic) [Example 73, rac-erythro-2-Amino-1-(2′-chloro-biphenyl-4-yl)-2-(4-chloro-phenyl)-ethanol]
- IC50: 0.462 µM

Structure (SMILES): N[C@@H](c1ccc(Cl)cc1)[C@H](O)c1ccc(-c2cccc(OC(F)(F)F)c2)cc1 (racemic) [Example 78, rac-erythro-2-Amino-2-(4-chloro-phenyl)-1-(3′-trifluoromethoxy-biphenyl-4-yl)-ethanol]
- IC50: 0.88 µM

Structure (SMILES): Cc1cccc(-c2ccc([C@@H](O)[C@@H](N)c3ccc(Cl)cc3)cc2)c1 (racemic) [Example 71, rac-erythro-2-Amino-2-(4-chloro-phenyl)-1-(3′-methyl-biphenyl-4-yl)-ethanol]
- IC50: 0.342 µM

Structure (SMILES): CC1(COc2ccc([C@@H](O)[C@@H](N)c3ccc(Cl)c(Cl)c3)c(F)c2)COC1 (racemic) [Example 34, rac-erythro-[2-Amino-2-(3,4-dichloro-phenyl)-1-[2-fluoro-4-(3-methyl-oxetan-3-ylmethoxy)-phenyl]-ethanol]
- IC50: 0.023 µM

Structure (SMILES): CN(C)c1cccc(-c2ccc([C@@H](O)[C@@H](N)c3ccc(Cl)c(Cl)c3)cc2)c1 (racemic) [Example 89, rac-erythro-2-Amino-2-(3,4-dichloro-phenyl)-1-(3′-dimethylamino-biphenyl-4-yl)-ethanol]
- IC50: 0.305 µM

Structure (SMILES): CC(C)COc1ccc([C@@H](O)[C@@H](N)c2ccc(Cl)c(Cl)c2)cc1 (racemic) [Example 50, rac-erythro-2-Amino-2-(3,4-dichloro-phenyl)-1-(4-isobutoxy-phenyl)-ethanol]
- IC50: 0.549 µM

Structure (SMILES): C[C@@](O)(c1ccc(-c2ccccc2)cc1)[C@@H](N)c1ccc(Cl)cc1 (racemic) [Example 36, rac-erythro-[1-Amino-2-biphenyl-4-yl-1-(4-chloro-phenyl)-propan-2-ol trifluoroacetate]
- IC50: 0.3 µM

Structure (SMILES): N[C@@H](c1ccc(Cl)c(Cl)c1)[C@H](O)c1ccc(OC2CCS(=O)(=O)CC2)cc1 (racemic) [Example 44, rac-erythro-[2-Amino-2-(3,4-dichloro-phenyl)-1-[4-(1,1-dioxo-hexahydro-1λ^6-thio-pyran-4-yloxy)-phenyl]-ethanol]
- IC50: 0.088 µM

Structure (SMILES): Cc1nc(C)c(-c2ccc([C@@H](O)[C@@H](N)c3ccc(Cl)cc3)cc2)s1 (racemic) [Example 75, rac-erythro-2-Amino-2-(4-chloro-phenyl)-1-[4-(2,4-dimethyl-thiazol-5-yl)-phenyl]-ethanol]
- IC50: 0.582 µM

Structure (SMILES): CN[C@@H](c1ccc(Cl)c(Cl)c1)[C@H](O)c1ccc(-c2cncc(F)c2)cc1 (racemic) [Example 39, rac-erythro-[2-(3,4-Dichloro-phenyl)-1-[4-(5-fluoro-pyridin-3-yl)-phenyl]-2-methylamino-ethanol hydrochloride]
- IC50: 0.208 µM

Structure (SMILES): COc1ccc(-c2ccc([C@@H](O)[C@@H](N)c3ccc(Cl)cc3)cc2)cn1 (racemic) [Example 77, rac-erythro-2-Amino-2-(4-chloro-phenyl)-1-[4-(6-methoxy-pyridin-3-yl)-phenyl]-ethanol]
- IC50: 0.814 µM

Structure (SMILES): COc1cc([C@@H](O)[C@@H](N)c2ccc(Cl)c(Cl)c2)ccc1-c1cncc(F)c1 (racemic) [Example 3, rac-erythro-[2-Amino-2-(3,4-dichloro-phenyl)-1-[4-(5-fluoro-pyridin-3-yl)-3-methoxy-phenyl]-ethanoldihydrochloride]
- IC50: 0.186 µM

Structure (SMILES): Cc1ccc([C@H](N)[C@H](O)c2ccc(OC3CCOC3)cc2)cc1Cl (mixture of isomers) [Example 55, rac-erythro-[2-Amino-2-(3-chloro-4-methyl-phenyl)-1-[4-(tetrahydro-furan-3-yloxy)-phenyl]-ethanol]
- IC50: 0.131 µM

Structure (SMILES): N[C@@H](c1ccc(Cl)c(Cl)c1)[C@H](O)c1ccc(-c2cccc([N+](=O)[O-])c2)cc1 (racemic) [Example 103, rac-erythro-2-Amino-2-(3,4-dichloro-phenyl)-1-(3′-nitro-biphenyl-4-yl)-ethanol]
- IC50: 0.412 µM

Structure (SMILES): N[C@@H](c1ccc(Cl)cc1)[C@H](O)c1ccc(-c2ccncc2)cc1 (racemic) [Example 61, rac-erythro-2-Amino-2-(4-chloro-phenyl)-1-(4-pyridin-4-yl-phenyl)-ethanol]
- IC50: 0.06 µM

Structure (SMILES): COCc1cccc(-c2ccc([C@@H](O)[C@@H](N)c3ccc(Cl)cc3)cc2)c1 (racemic) [Example 60, rac-erythro-2-Amino-2-(4-chloro-phenyl)-1-(3′-methoxymethyl-biphenyl-4-yl)-ethanol hydrochloride]
- IC50: 0.261 µM

Structure (SMILES): Cc1cc([C@H](N)[C@H](O)c2ccc(-c3cccnc3)cc2)ccc1Cl (racemic) [Example 86, rac-erythro-2-Amino-2-(4-chloro-3-methyl-phenyl)-1-(4-pyridin-3-yl-phenyl)-ethanol]
- IC50: 0.049 µM
